Source: publication PMC9485985 (Journal of Innate Immunity, 2021)
Peptide text beside a SMILES is read from it.

How the values were obtained:
[1] = system: RAW264.7 cells; test: Uptake of TAMRA-labeled TCPs, flow cytometry; assay type: cell-based, murine; conditions: Fig. 1d, inhibitor 30 min then 2 µM T-GKY25 1 h, n = 3-4
[2] = system: 0.5% whole blood; conditions: ref [5], [7], [11], [12], [38]; cited from earlier work
[3] = ref [11]; cited from earlier work

Compound: CN(C)c1cccc2c(S(=O)(=O)NCCCCCN)cccc12 [dansylcadaverine, Dansylcadaverine]
- effect of inhibitor on uptake of T-GKY25 [1]: did not show any effect

Compound: CC[C@H](C)[C@H](NC(=O)[C@H](Cc1c[nH]c2ccccc12)NC(=O)[C@H](CCCCN)NC(=O)[C@H](CCCCN)NC(=O)[C@H](CC(C)C)NC(=O)[C@H](CCCNC(=N)N)NC(=O)[C@H](Cc1ccccc1)NC(=O)[C@@H](NC(=O)[C@@H](N)Cc1cnc[nH]1)C(C)C)C(=O)N[C@@H](CCC(N)=O)C(=O)N[C@@H](CCCCN)C(=O)N[C@H](C(=O)N[C@H](C(=O)N[C@@H](CC(=O)O)C(=O)N[C@@H](CCC(N)=O)C(=O)N[C@@H](Cc1ccccc1)C(=O)NCC(=O)N[C@@H](CCC(=O)O)C(=O)O)[C@@H](C)CC)C(C)C [HVF18] (H-HVFRLKKWIQKVIDQFGE-OH)
- concentration from which hemolysis is induced [2]: > 80 µM

Compound: WFFFYYLIIGGGVVTHQQRKKKKDE [WFF25]
- immunomodulatory effects [3]: did not show any immunomodulatory effects
